# Legend:
# [1] = Thermal behaviour of solutions for lyophilization (DSC); format: physicochemical
# From the text: Differential Scanning calorimetry (DSC) was used to identify the lowest possible transient temperature in the solution throughout the entire lyophilization process, including freezing and dehydration. For the solutions of most pharmaceutical products, this parameter is represented by the glass transition temperature or “Tgt”. All components and their amounts in the solution contribute to the final value of Tgt. This temperature is usually several degrees below the temperature at which the sintered material can crumble during the lyophilization process (collapse temperature, Tc). Without determining the collapse temperature by such methods as cryomicroscopy, the glass transition temperature can be used to select the primary drying temperature. Until the primary drying is completed, the initial drying temperature should be set in such a manner that there are no vials for which the glass transition temperature has been exceeded (or Tc, if known). Otherwise, the structure of the sintered material may get broken. On the one hand, the lyophilization temperature should be close to Tgt, so that the process proceeds efficiently, and on the other hand, it cannot exceed Tgt due to process requirements and qualitative product parameters. Thus, the values of collapse and glass transition temperature are important parameters for calculating safe upper temperature limits, which can be used for lyophilization. Based on the proposed filling of the vials with the drug (100 mg of active ingredient per vial), potential solutions for filling were prepared. The excipients included sterile water for injection (SWFI), 50 mM succinate and tartrate buffers at pH 5, MgCl2, sulfobutylether β-cyclodextrin (SBEβCD), mannitol and dextran 40. In addition, for solutions containing mannitol, a study of the effect of the annealing stage (the lyophilization process stage when the samples are kept at a certain temperature below the freezing point for a certain period of time) on the improvement the crystallinity of the finished product was performed. […]
# [2] = tested on: bone lesions caused by malignant neoplasms; assay: Phase I open non-randomized multicenter clinical study; format: in vivo; conditions: patients; intravenous infusion daily for 5 days, break of 23 days; on free acid basis
# Method: To assess the efficacy and safety of the novel medicinal drug, clinical studies of phase I were conducted according to “Open non-randomized multicenter clinical study” protocol.
# All patients received a single dosing with the study drug in a dose corresponding to the dose level of the cohort with the subsequent weekly follow-up period and at least 2 cycles of multiple dosing. The cycle consisted of daily administration (o.d.) of the drug for 5 days, followed by a break of 23 days. […] According to protocol criteria, the maximum tolerated dose is considered a dose 1 level lower than DLT (5 mg/kg).
# [3] = Succinate buffer, MBC-11 25 mg/mL, MgCl2, 86.5 mmol/L
# [4] = Tartrate buffer, MBC-11 25 mg/mL, MgCl2, 86.5 mmol/L
smiles,measurement,setting,value
"CC(O)(P(=O)(O)O)P(=O)(O)OP(=O)(O)OC[C@H]1O[C@@H](n2ccc(N)nc2=O)[C@@H](O)[C@@H]1O.[Na].[Na].[Na] (stereo partly drawn) [MBC-11, Trisodium salt of 1-((((((2R,3S,4S,5R)-5-(4-amino-2-oxopyrimidine-1(2H)-yl)-3,4-dihydroxytetrahydrofuran-2-yl)methoxy))(hydroxy)phosphoryloxy)(hydroxy)phosphoryl)-1-hydroxyethylphosphonic acid]",Thermal effect (event): endotherm,"[1]; SWFI, MBC-11 25 mg/mL, MgCl2, 43.25 mmol/L",−21 °C (endotherm)
same,Thermal effect (event): possible crystallization,"[1]; SWFI, MBC-11 25 mg/mL, MgCl2, 43.25 mmol/L + Mannitol, 25 mg/mL",−27 °C
same,Thermal effect (event): specific endothermicity (none crystallization after temperature processing),"[1]; SWFI, MBC-11 25 mg/mL, MgCl2, 43.25 mmol/L + Mannitol, 25 mg/mL, Annealing at −20° C.",−22 °C
same,Thermal effect (event): weak endothermicity (none crystallization after annealing),"[1]; SWFI, MBC-11 25 mg/mL, MgCl2, 43.25 mmol/L + Mannitol, 25 mg/mL, Annealing at −24° C.",−22 °C
same,Thermal effect (event): endothermicity,"[1]; SWFI, MBC-11 25 mg/mL, MgCl2, 86.5 mmol/L",−26 °C (endothermicity)
same,Thermal effect (event),"[1]; SWFI, MBC-11 25 mg/mL, MgCl2, 86.5 mmol/L + Mannitol, 25 mg/mL",Tgt/endothermicity before
same,Thermal effect (event): endothermicity,"[1]; SWFI, MBC-11 50 mg/mL, MgCl2, 86.5 mmol/L",−21 °C (endothermicity)
same,Thermal effect (event),"[1]; SWFI, MBC-11 50 mg/mL, MgCl2, 86.5 mmol/L + Mannitol, 25 mg/mL",Tgt/endothermicity before
same,Thermal effect (event): endothermicity,"[1]; SWFI, MBC-11 50 mg/mL, MgCl2, 173 mmol/L",−26 °C (endothermicity)
same,Thermal effect (event),"[1]; SWFI, MBC-11 50 mg/mL, MgCl2, 173 mmol/L + Mannitol, 25 mg/mL",Tgt/endothermicity before
same,Thermal effect (event): endothermicity,"[1]; SWFI, MBC-11 100 mg/mL, MgCl2, 173 mmol/L",−22 °C (endothermicity)
same,Thermal effect (event): endothermicity,"[1]; SWFI, MBC-11 100 mg/mL, MgCl2, 350 mmol/L",−26 °C (endothermicity)
same,Thermal effect (event): crystallization,[1]; [3],−34 °C (crystallization)
same,Thermal effect (event): endothermicity,[1]; [3],−26 °C (endothermicity)
same,Thermal effect (event),"[1]; Succinate buffer, MBC-11 25 mg/mL, MgCl2, 86.5 mmol/L + Mannitol, 25 mg/mL",Tgt/endothermicity before
same,Thermal effect (event): crystallization,[1]; [4],−30 °C (crystallization)
same,Thermal effect (event): endothermicity,[1]; [4],−22 °C (endothermicity)
same,maximum tolerated daily dose,[2],5 mg/kg

# Reference: patent publication US11045487B2, “Pharmaceutical preparation treating bone lesions caused by malignant neoplasms” (priority 2016, dated 2021)
